According to ChEMBL document CHEMBL1144455, “A small molecule-kinase interaction map for clinical kinase inhibitors” (Nat Biotechnol, 2005):

Assays:
[1] = target: High affinity nerve growth factor receptor (Homo sapiens, UniProt P04629)
[2] = target: Ribosomal protein S6 kinase alpha-5 (Homo sapiens, UniProt O75582)
[3] = target: T1, Serine/threonine-protein kinase 4 (Homo sapiens, UniProt Q13043)
T1 sequence (Q13043 whole entry): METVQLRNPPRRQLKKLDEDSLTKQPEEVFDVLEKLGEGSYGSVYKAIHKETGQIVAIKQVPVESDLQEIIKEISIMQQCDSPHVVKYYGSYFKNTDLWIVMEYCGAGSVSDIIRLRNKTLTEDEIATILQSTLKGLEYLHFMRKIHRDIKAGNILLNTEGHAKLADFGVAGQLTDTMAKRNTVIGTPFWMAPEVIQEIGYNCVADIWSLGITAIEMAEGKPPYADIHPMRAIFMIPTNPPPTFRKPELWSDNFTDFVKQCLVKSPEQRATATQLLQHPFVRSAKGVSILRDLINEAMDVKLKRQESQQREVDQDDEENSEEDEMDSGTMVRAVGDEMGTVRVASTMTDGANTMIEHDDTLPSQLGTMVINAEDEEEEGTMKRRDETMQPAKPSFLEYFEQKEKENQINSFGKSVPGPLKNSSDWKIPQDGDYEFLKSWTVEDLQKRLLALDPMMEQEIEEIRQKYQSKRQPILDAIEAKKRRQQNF

[4] = target: Serine/threonine-protein kinase PAK 1 (Homo sapiens, UniProt Q13153)
Angiopoietin-1 receptor = Angiopoietin-1 receptor (Homo sapiens, UniProt Q02763)
Angiopoietin-1 receptor, sequence (Q02763 whole entry): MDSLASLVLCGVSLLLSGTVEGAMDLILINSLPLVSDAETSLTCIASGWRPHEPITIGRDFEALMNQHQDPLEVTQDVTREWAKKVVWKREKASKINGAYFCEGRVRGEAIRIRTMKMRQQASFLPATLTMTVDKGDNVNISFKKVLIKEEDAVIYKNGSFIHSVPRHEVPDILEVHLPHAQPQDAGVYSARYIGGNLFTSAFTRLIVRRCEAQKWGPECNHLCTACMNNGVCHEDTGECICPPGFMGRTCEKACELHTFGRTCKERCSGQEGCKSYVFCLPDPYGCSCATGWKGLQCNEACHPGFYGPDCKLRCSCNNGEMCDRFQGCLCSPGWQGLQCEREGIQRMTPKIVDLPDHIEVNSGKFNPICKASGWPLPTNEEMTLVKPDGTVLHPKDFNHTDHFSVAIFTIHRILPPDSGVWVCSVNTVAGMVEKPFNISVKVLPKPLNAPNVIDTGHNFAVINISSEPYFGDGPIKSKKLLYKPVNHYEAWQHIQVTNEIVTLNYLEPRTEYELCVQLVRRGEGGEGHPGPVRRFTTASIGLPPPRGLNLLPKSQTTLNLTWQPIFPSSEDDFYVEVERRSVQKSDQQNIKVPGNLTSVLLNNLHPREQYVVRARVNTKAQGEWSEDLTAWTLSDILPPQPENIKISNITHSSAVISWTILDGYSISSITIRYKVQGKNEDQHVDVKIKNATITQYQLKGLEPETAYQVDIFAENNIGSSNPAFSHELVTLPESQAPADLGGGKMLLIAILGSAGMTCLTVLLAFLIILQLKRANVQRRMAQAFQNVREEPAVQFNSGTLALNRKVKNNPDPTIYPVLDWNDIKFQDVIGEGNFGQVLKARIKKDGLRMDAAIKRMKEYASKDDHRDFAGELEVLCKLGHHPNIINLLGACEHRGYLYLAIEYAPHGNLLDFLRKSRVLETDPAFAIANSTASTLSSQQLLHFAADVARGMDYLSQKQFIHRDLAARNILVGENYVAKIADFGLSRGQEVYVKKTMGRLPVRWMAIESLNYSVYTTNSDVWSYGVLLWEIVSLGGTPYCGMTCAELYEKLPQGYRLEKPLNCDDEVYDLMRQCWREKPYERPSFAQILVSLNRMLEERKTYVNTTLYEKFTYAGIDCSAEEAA

[5] = target: Tyrosine-protein kinase ABL1 (Homo sapiens, UniProt P00519, T315I)
[6] = target: Calcium/calmodulin-dependent protein kinase type II subunit gamma (Homo sapiens, UniProt Q13555)
[7] = target: Tyrosine-protein kinase CSK (Homo sapiens, UniProt P41240)
[8] = target: Serine/threonine-protein kinase pim-2 (Homo sapiens, UniProt Q9P1W9)
[9] = target: Vascular endothelial growth factor receptor 3 (Homo sapiens, UniProt P35916)
Vascular endothelial growth factor receptor 3, sequence (P35916 whole entry): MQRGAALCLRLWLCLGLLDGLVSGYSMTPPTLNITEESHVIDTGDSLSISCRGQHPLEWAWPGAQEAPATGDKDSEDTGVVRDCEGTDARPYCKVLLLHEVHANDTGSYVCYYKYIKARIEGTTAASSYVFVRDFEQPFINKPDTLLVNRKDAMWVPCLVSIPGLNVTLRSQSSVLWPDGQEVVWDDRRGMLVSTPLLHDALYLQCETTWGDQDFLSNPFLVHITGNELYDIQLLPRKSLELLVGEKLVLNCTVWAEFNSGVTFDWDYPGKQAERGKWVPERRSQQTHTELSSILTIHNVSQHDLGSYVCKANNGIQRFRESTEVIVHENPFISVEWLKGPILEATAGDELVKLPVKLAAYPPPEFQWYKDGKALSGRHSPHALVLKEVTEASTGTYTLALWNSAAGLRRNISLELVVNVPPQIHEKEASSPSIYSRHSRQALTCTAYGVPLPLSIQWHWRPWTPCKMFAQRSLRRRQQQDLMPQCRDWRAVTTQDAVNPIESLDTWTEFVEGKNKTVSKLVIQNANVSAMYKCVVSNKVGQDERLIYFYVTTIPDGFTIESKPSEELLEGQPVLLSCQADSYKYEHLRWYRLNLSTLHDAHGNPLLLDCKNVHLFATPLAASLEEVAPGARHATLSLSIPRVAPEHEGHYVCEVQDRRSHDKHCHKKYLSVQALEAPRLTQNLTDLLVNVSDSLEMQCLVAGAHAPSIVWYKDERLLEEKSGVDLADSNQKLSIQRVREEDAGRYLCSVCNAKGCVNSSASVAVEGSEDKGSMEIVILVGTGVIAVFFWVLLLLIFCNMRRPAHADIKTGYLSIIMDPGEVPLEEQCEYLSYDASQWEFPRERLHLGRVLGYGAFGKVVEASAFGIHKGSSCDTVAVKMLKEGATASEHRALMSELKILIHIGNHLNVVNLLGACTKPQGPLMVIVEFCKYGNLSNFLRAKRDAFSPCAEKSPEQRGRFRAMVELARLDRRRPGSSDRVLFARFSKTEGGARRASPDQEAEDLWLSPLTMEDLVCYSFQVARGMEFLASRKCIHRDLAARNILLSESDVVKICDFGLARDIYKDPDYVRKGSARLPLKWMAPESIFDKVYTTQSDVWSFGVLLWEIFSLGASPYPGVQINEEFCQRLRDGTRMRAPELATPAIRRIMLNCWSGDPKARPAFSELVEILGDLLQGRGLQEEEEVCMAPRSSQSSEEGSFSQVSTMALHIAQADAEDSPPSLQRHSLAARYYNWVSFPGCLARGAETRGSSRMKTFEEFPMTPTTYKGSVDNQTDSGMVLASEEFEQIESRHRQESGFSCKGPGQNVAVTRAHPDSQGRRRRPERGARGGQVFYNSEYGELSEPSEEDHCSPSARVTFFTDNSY

[10] = target: T2, Serine/threonine-protein kinase Nek9 (Homo sapiens, UniProt Q8TD19)
T2 sequence (Q8TD19 whole entry): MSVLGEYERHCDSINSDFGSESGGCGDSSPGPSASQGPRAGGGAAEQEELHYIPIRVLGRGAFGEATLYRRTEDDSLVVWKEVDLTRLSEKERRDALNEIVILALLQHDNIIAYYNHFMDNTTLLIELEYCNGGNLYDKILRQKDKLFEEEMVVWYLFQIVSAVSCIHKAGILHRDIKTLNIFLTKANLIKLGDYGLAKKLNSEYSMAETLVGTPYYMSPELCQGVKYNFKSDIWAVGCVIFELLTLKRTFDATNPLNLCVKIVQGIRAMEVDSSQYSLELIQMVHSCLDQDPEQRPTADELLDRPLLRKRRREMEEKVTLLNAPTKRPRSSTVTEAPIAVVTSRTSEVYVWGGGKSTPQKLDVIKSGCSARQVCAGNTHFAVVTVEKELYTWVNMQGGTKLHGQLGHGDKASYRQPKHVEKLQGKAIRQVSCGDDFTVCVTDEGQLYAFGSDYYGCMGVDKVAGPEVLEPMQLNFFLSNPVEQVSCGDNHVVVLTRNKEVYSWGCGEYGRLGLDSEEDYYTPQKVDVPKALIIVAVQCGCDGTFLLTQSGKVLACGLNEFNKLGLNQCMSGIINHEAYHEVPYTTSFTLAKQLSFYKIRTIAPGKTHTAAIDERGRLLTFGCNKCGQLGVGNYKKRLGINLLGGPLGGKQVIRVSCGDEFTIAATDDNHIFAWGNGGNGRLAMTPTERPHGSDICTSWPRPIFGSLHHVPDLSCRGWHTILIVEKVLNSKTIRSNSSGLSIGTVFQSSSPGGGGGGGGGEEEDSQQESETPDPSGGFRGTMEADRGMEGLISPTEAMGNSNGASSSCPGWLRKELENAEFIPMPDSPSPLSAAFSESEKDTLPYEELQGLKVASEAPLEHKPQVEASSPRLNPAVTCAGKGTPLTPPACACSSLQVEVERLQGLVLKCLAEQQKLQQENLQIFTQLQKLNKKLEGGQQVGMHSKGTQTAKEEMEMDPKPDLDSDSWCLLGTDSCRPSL

[11] = target: Tyrosine-protein kinase JAK1 (Homo sapiens, UniProt P23458)
Tyrosine-protein kinase JAK1, sequence (P23458 whole entry): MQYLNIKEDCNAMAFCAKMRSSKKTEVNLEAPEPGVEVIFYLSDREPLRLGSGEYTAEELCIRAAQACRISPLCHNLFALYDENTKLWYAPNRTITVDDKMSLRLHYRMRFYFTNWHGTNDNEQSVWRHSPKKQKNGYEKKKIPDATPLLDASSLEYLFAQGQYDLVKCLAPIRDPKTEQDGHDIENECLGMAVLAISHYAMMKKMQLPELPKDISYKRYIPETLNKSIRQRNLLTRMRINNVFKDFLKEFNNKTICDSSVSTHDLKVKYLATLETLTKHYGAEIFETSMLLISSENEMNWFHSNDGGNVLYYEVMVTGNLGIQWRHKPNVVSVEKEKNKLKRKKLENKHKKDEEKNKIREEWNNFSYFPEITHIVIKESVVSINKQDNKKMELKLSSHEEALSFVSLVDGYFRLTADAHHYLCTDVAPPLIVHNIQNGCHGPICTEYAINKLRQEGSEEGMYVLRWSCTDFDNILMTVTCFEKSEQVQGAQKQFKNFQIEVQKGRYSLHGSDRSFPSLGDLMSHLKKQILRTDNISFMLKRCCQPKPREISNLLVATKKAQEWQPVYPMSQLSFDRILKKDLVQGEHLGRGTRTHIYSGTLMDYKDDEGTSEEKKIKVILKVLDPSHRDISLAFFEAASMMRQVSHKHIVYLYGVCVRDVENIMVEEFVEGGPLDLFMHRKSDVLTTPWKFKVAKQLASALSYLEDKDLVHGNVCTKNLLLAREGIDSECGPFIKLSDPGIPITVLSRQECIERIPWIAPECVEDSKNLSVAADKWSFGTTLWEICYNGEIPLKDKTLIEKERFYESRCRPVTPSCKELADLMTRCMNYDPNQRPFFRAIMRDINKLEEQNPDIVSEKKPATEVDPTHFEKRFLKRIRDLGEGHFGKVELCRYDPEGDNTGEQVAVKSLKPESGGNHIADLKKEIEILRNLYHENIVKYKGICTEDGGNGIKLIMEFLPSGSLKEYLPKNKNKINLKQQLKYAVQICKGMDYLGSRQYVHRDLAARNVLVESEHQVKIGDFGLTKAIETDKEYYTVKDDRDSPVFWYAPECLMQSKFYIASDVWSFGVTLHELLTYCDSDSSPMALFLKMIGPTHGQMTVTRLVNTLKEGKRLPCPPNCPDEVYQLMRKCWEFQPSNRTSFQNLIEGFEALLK

[12] = target: Fibroblast growth factor receptor 3 (Homo sapiens, UniProt P22607)
[13] = target: T3, Serine/threonine-protein kinase ULK3 (Mus musculus, UniProt Q3U3Q1)
T3 sequence (Q3U3Q1 whole entry): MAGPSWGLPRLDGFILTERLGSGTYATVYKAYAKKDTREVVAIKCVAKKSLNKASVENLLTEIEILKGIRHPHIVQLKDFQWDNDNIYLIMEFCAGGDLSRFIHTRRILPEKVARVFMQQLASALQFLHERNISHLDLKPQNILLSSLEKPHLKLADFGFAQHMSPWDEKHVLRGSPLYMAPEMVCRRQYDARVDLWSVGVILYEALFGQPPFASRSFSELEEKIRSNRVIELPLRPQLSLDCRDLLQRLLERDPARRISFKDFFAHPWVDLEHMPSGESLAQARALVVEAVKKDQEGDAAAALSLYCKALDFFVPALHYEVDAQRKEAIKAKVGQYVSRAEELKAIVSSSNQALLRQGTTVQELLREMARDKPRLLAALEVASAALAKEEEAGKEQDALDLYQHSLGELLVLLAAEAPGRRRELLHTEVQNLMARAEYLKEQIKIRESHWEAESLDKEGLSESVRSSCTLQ

[14] = target: Protein kinase C alpha type (Homo sapiens, UniProt P17252)
[15] = target: Myosin light chain kinase 2, skeletal/cardiac muscle (Homo sapiens, UniProt Q9H1R3)

Measured: Kd

Ribosomal protein S6 kinase alpha-5, sequence (O75582 whole entry): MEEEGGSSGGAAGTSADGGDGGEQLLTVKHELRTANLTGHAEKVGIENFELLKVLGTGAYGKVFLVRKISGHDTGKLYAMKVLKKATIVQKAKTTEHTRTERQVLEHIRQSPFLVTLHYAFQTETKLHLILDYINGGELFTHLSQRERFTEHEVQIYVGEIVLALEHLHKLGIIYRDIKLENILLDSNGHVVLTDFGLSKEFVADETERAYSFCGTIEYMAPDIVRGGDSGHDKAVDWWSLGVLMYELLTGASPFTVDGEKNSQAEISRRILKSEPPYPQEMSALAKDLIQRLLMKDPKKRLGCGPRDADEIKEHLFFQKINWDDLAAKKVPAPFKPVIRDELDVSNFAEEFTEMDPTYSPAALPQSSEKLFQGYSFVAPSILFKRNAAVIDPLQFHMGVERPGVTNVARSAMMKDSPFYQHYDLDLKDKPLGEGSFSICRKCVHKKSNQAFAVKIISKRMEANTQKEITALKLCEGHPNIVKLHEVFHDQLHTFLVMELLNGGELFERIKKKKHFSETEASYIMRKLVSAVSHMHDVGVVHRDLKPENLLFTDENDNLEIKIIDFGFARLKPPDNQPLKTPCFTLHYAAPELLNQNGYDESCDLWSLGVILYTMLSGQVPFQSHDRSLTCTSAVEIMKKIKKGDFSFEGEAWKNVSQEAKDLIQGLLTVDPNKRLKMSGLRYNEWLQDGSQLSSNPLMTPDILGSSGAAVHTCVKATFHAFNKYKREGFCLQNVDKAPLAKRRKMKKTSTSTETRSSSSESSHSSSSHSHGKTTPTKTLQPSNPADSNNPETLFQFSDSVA

CC[C@H](CO)Nc1nc(NCc2ccccc2)c2ncn(C(C)C)c2n1 [SELICICLIB]
Not Active: all assays above
